Tested on: TFEB
Test: TFEB nuclear translocation assay, HeLa wt cells
Format: cell-based
Details: 2 hrs compound treatment, Table 1 does not say HeLa wt or TRPML1 KO
Method in brief: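 HeLa wt, 2 hr compound, 37° C; 4% PFA fix; anti-TFEB (rabbit, 1:200, overnight 4° C) + Alexa 488 secondary, Hoechst. Imaged ×20, 4 fields/well. Readout: nuclear/ring Alexa 488 intensity ratio; AC50.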

Compound | AC50 (Homo sapiens, HeLa, 2 h) [nM] | AC50 [nM]
CN(C)S(=O)(=O)c1ccc(S(=O)(=O)Nc2ccccc2N2CC=C(c3ccc(Cl)cc3F)CC2)cc1 [Compound A-32, N4-{2-[4-(4-chloro-2-fluorophenyl)-1,2,3,6-tetrahydropyridin-1-yl]phenyl}-N1,N1-dimethylbenzene-1,4-disulfonamide] | ≤ 2000 | 
CC(C(=O)N1CCN(c2ccccc2NS(=O)(=O)c2ccc(S(=O)(=O)N(C)C)cc2)CC1)C(C)(C)C (stereo not drawn) [Compound A-428, N1,N1-dimethyl-N4-{2-[4-(2,3,3-trimethylbutanoyl)piperazin-1-yl]phenyl}benzene-1,4-disulfonamide] | ≤ 2000 | 
O=S(=O)(CCO)c1ccc(S(=O)(=O)Nc2ccccc2N2CCC(c3ccc(Cl)cc3F)CC2)cc1 [Compound A-637, N-{2-[4-(4-chloro-2-fluorophenyl)piperidin-1-yl]phenyl}-4-(2-hydroxyethanesulfonyl)benzene-1-sulfonamide] | ≥ 10000 | 
COCC1(C)CCN(c2ccccc2CS(=O)(=O)c2ccc(S(=O)(=O)N(C)C)cc2)CC1 [Compound A-493, 4-({2-[4-(methoxymethyl)-4-methylpiperidin-1-yl]phenyl}methanesulfonyl)-N,N-dimethylbenzene-1-sulfonamide] | ≤ 2000 | 
CC(c1cccc(F)c1N1CCC(C)(C(F)F)CC1)S(=O)(=O)c1ccc(S(=O)(=O)N(C)C)cc1 (single isomer, unassigned) [Compound A-933, 4-((1-(2-(4-(difluoromethyl)-4-methylpiperidin-1-yl)-3-fluorophenyl)ethyl)sulfonyl)-N,N-dimethylbenzenesulfonamide] |  | ≤ 2000
COc1ccc(S(=O)(=O)Nc2cnccc2N2CCC(c3ncc(F)cc3F)CC2)cc1 [Compound A-193, N-{4-[4-(3,5-difluoropyridin-2-yl)piperidin-1-yl]pyridin-3-yl}-4-methoxybenzene-1-sulfonamide] | ≥ 10000 | 
CN(C)S(=O)(=O)c1ccc(S(=O)(=O)Nc2ccccc2N2CCC(O)(c3ccc(F)cc3F)CC2)cc1 [Compound A-141, N4-{2-[4-(2,4-difluorophenyl)-4-hydroxypiperidin-1-yl]phenyl}-N1,N1-dimethylbenzene-1,4-disulfonamide] | ≤ 2000 | 
COC1(C(=O)N2CCN(c3ccccc3NS(=O)(=O)c3ccc(S(=O)(=O)N(C)C)cc3)CC2)CCC1 [Compound A-458, N4-{2-[4-(1-methoxycyclobutanecarbonyl)piperazin-1-yl]phenyl}-N1,N1-dimethylbenzene-1,4-disulfonamide] | 2010 to 8000 | 
CC(c1cncc(F)c1N1CCC(F)(F)CC1)S(=O)(=O)c1ccc(S(=O)(=O)N(C)C)cc1 (stereo not drawn) [Compound A-986, 4-{1-[4-(4,4-difluoropiperidin-1-yl)-5-fluoropyridin-3-yl]ethanesulfonyl}-N,N-dimethylbenzene-1-sulfonamide] | ≥ 10000 | 
CN(C)S(=O)(=O)c1ccc(S(=O)(=O)Nc2ccccc2N2CCC3(CC2)COc2cc(F)ccc23)cc1 [Compound A-253, N4-(2-{6-fluoro-2H-spiro[1-benzofuran-3,4′-piperidin]-1′-yl}phenyl)-N1,N1-dimethylbenzene-1,4-disulfonamide] | ≤ 2000 | 
CN(C)S(=N)(=O)c1ccc(S(=O)(=O)Nc2cccc(F)c2N2CCC(CN3CCOCC3(C)C)CC2)cc1 (stereo not drawn) [Compound A-867, 4-[(2-{4-[(3,3-dimethylmorpholin-4-yl)methyl]piperidin-1-yl}-3-fluorophenyl)sulfamoyl]-N,N-dimethylbenzene-1-sulfonoimidamide] | ≤ 2000 | 
CN(C)S(=O)(=O)c1ccc(S(=O)(=O)Nc2cccc(F)c2N2CCC3(CC2)COC(C)(C)C3)cc1 [Compound A-615] | ≤ 2000 | 
CN(C)S(=O)(=O)c1ccc(S(=O)(=O)Nc2ccccc2N2CCC(C3CCCCO3)CC2)cc1 (stereo not drawn) [Compound A-435, N1,N1-dimethyl-N4-{2-[4-(oxan-2-yl)piperidin-1-yl]phenyl}benzene-1,4-disulfonamide] | ≤ 2000 | 
CN(C(=O)C1CCN(c2ccccc2NS(=O)(=O)c2ccc(S(=O)(=O)N(C)C)cc2)CC1)c1ccccc1 [Compound A-339, 1-{2-[4-(dimethylsulfamoyl)benzenesulfonamido]phenyl}-N-methyl-N-phenylpiperidine-4-carboxamide] | 2010 to 8000 | 
CN(C)S(=O)(=O)c1ccc(S(=O)(=O)Nc2ccccc2N2CCN(CC(F)(F)F)CC2)cc1 [Compound A-560, N1,N1-dimethyl-N4-{2-[4-(2,2,2-trifluoroethyl)piperazin-1-yl]phenyl}benzene-1,4-disulfonamide] | ≤ 2000 | 
COCC1(C)CCN(c2ccccc2NS(=O)(=O)c2ccc(C3(C(F)(F)F)N=N3)cc2)CC1 [Compound A-740, N-{2-[4-(methoxymethyl)-4-methylpiperidin-1-yl]phenyl}-4-[3-(trifluoromethyl)-3H-diazirin-3-yl]benzene-1-sulfonamide] | 8010 to 9990 | 
CN(C)S(=O)(=O)c1ccc(S(=O)(=O)Nc2ccccc2N2CC3CC2CN3c2ccc(Cl)cc2F)cc1 (stereo not drawn) [Compound A-31, N4-{2-[5-(4-chloro-2-fluorophenyl)-2,5-diazabicyclo[2.2.1]heptan-2-yl]phenyl}-N1,N1-dimethylbenzene-1,4-disulfonamide] | ≤ 2000 | 

Compound | AC50 (Homo sapiens, HeLa, 2 h) [nM] | AC50 [nM]
C[C@H]1CN(c2ccccc2NS(=O)(=O)c2ccc(S(=O)(=O)N(C)C)cc2)CCN1C(=O)c1cscn1 [Compound A-416, N1,N1-dimethyl-N4-{2-[(3S)-3-methyl-4-(1,3-thiazole-4-carbonyl)piperazin-1-yl]phenyl}benzene-1,4-disulfonamide] | 2010 to 8000 | 
Cc1noc(NS(=O)(=O)c2ccc(S(=O)(=O)N(C)C)cc2)c1C1CCN(c2ccc(Cl)cc2F)CC1 [Compound A-105, N4-{4-[1-(4-chloro-2-fluorophenyl)piperidin-4-yl]-3-methyl-1,2-oxazol-5-yl}-N1,N1-dimethylbenzene-1,4-disulfonamide] | ≥ 10000 | 
CN=S(=O)(c1ccc(S(=O)(=O)Nc2cccc(F)c2N2CCC(CN3C[C@@H](C)O[C@@H](C)C3)CC2)cc1)N(C)C (stereo partly drawn) [Compound A-956, 4-{[2-(4-{[(2R,6S)-2,6-dimethylmorpholin-4-yl]methyl}piperidin-1-yl)-3-fluorophenyl]sulfamoyl}-N,N,N-trimethylbenzene-1-sulfonoimidamide] | ≤ 2000 | 
COCC1(C)CCN(c2ccccc2NS(=O)(=O)Cc2ccc(C)c(F)c2)CC1 [Compound A-646, 1-(3-fluoro-4-methylphenyl)-N-{2-[4-(methoxymethyl)-4-methylpiperidin-1-yl]phenyl}methanesulfonamide] | 2010 to 8000 | 
CC(c1cccnc1N1CCC(CN2CCC(F)(F)CC2)CC1)S(=O)(=O)c1ccc(S(=O)(=O)N(C)C)cc1 (stereo not drawn) [Compound A-987, 4-[1-(2-{4-[(4,4-difluoropiperidin-1-yl)methyl]piperidin-1-yl}pyridin-3-yl)ethanesulfonyl]-N,N-dimethylbenzene-1-sulfonamide] | ≤ 2000 | 
CC(c1ccc(F)cc1N1CCC2(CC1)COC(C)(C)C2)S(=O)(=O)c1ccc(S(=O)(=O)N(C)C)cc1 (stereo not drawn) [Compound A-737, 4-[1-(2-{3,3-dimethyl-2-oxa-8-azaspiro[4.5]decan-8-yl}-4-fluorophenyl)ethanesulfonyl]-N,N-dimethylbenzene-1-sulfonamide] | ≥ 10000 | 
CN(C)S(=O)(=O)c1ccc(S(=O)(=O)Nc2ccccc2N2CCCN(C3CC3)CC2)cc1 [Compound A-484, N4-[2-(4-cyclopropyl-1,4-diazepan-1-yl)phenyl]-N1,N1-dimethylbenzene-1,4-disulfonamide] | 2010 to 8000 | 
CCOCCC1CCN(c2ccccc2NS(=O)(=O)c2ccc3c(c2)CC(C)(C)O3)CC1 [Compound A-631, N-{2-[4-(2-ethoxyethyl)piperidin-1-yl]phenyl}-2,2-dimethyl-2,3-dihydro-1-benzofuran-5-sulfonamide] | ≤ 2000 | 
COCCN1CCN(c2ccccc2NS(=O)(=O)c2ccc(S(=O)(=O)N(C)C)cc2)CC1 [Compound A-553, N4-{2-[4-(2-methoxyethyl)piperazin-1-yl]phenyl}-N1,N1-dimethylbenzene-1,4-disulfonamide] | 2010 to 8000 | 
CC(c1cccc(F)c1N1CCC(CN2C3CCC2COC3)CC1)S(=O)(=O)c1ccc(S(=O)(=O)N(C)C)cc1 (stereo not drawn) [Compound A-839, 4-(1-{3-fluoro-2-[4-({3-oxa-8-azabicyclo[3.2.1]octan-8-yl}methyl)piperidin-1-yl]phenyl}ethanesulfonyl)-N,N-dimethylbenzene-1-sulfonamide] |  | ≤ 2000
CN(C)S(=O)(=O)c1ccc(S(=O)(=O)Nc2ccccc2N2CCC3(CC2)COC(C)(C)C3)c(F)c1 [Compound A-653, N4-(2-{3,3-dimethyl-2-oxa-8-azaspiro[4.5]decan-8-yl}phenyl)-3-fluoro-N1,N1-dimethylbenzene-1,4-disulfonamide] | 2010 to 8000 | 
CCC1(OC)CCN(c2ccccc2NS(=O)(=O)c2ccc(S(=O)(=O)N(C)C)cc2)CC1 [Compound A-546, N4-[2-(4-ethyl-4-methoxypiperidin-1-yl)phenyl]-N1,N1-dimethylbenzene-1,4-disulfonamide] | ≤ 2000 | 
CN(C)S(=O)(=O)c1ccc(S(=O)(=O)Nc2ccccc2N2CCN(C(=O)C34CCCCC3C4)CC2)cc1 (stereo not drawn) [Compound A-487, N4-[2-(4-{bicyclo[4.1.0]heptane-1-carbonyl}piperazin-1-yl)phenyl]-N1,N1-dimethylbenzene-1,4-disulfonamide] | ≤ 2000 | 
Cc1ccc(N2CCOCC2)c(NS(=O)(=O)c2ccc3c(c2)CCC3)c1 [Compound A-520, N-[5-methyl-2-(morpholin-4-yl)phenyl]-2,3-dihydro-1H-indene-5-sulfonamide] | ≤ 2000 | 
CN(C)S(=O)(=O)c1ccc(C(C)(C)Nc2ccccc2N2CCN(Cc3ccccc3)CC2)cc1 [Compound A-733, 4-(2-{[2-(4-benzylpiperazin-1-yl)phenyl]amino}propan-2-yl)-N,N-dimethylbenzene-1-sulfonamide] | 2010 to 8000 | 
CC(Sc1ccc(S(=O)(=O)C(F)F)cc1)c1cccc(F)c1N1CCCCC1 (stereo not drawn) [Compound A-971, 1-(2-{1-[(4-difluoromethanesulfonylphenyl)sulfanyl]ethyl}-6-fluorophenyl)piperidine] | 2010 to 8000 | 
